For series [1], the system named is endogenous LOXs in intact RAW 264.7 macrophage cells. Briefly: Western blot of Labelox B labeling in intact RAW 264.7 macrophage cells. The format is cell-based. The text has this: described in the IC50 determination assay. Michaelis-Menten plots, Lineweaver-Burk plots, Km, and Vmax, are generated using GraphPad Prism 8.3.0.
1.5. Kits-Wilson kinetic analysis […]
enzyme to get a reversible complex, E*I. The dissociation constant of inhibitor (Ki) is from the formation […]
E-I. The inactivation rate constant (ki) is to describe the rate of E-I generation. To determine these inactivation parameters, Kitz-Wilson analysis was employed. The procedure has been detailed previously […]
1.6. Immunoblotting Analysis
Raw 264.7 cells were seeded in a 6-well plate at a density of 5x10^5 cells per well in high glucose DMEM media supplemented with 1% penicillin/streptomycin, 10% fetal bovine serum (FBS) (Costar Europe, Badhoevedrop, The Netherlands) at 37°C and cultured overnight. Afterward, cells were treated with the desired concentration of Labelox B at the expected time. Then, the cells were harvested and lysed with RIPA buffer containing 1X PIC. […]
Later, 30 μl of each sample was used for immunoblotting analysis. […] After washing, the blotting bands were detected with enhanced chemiluminescence (ECL) solution (GE Healthcare, Amersham, UK). […]
A549 cells were lysed by RIPA buffer supplemented with 1x PIC. After sonication and centrifugation, the supernatant was collected, and the protein concentration was determined by a Pierce BCA Protein Assay Kit (Thermo Fisher Scientific, USA). […]

For a further series, the target named is T1, 5-LOX (Homo sapiens, UniProt P09917).
T1 construct: the endogenous LOXs were captured on an anti‐LOX antibody precoated 96‐well plate; endogenous in cells; host or cells: A549 cell lysate
T1 sequence (P09917 1-674): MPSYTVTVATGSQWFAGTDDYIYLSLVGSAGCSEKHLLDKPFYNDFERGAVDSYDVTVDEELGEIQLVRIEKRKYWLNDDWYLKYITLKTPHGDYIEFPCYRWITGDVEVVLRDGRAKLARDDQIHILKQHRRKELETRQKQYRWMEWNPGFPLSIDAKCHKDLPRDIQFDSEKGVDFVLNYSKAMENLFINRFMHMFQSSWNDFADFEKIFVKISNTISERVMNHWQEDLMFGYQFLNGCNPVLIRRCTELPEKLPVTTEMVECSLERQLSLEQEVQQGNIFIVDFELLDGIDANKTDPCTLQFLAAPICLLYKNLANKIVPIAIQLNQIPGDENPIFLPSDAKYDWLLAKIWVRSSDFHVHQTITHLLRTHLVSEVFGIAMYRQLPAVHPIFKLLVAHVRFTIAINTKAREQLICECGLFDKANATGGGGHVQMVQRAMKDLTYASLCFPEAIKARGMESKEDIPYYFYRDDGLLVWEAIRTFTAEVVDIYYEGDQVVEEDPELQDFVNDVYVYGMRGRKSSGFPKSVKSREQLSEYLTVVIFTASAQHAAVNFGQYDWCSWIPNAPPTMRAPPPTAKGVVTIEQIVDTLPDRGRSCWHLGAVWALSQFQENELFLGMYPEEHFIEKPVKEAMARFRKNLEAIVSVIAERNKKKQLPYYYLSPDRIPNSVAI
Briefly: Sandwich ELISA of Labelox B biotinylation in A549 cell lysate, 5-LOX capture. The format is biochemical. The following applies: HRP-streptavidin detection, read-out: EC50 of labeling. The method, then:
(§1) Labelox B efficiently labels endogenous LOXs. Lipoxygenase labeling by Labelox B was investigated using cell‐based assays. As a first step, labeling efficiency was estimated in intact RAW 264.7 macrophage cells that were treated with Labelox B in concentrations ranging between 1 μM and 100 μM with incubation times between 0.5 h and 6 h. […] As a next step, a sandwich ELISA assay was established in order to find proof that probe Labelox B is indeed labeling proteins with lipoxygenase enzyme activity. Towards this aim, A549 cell lysates were treated with sub‐micromolar to micromolar concentrations of Labelox B. Subsequently, the endogenous LOXs were captured on an anti‐LOX antibody precoated 96‐well plate followed by detection of Labelox B mediated biotinylation using HRP‐conjugated streptavidin. […] Furthermore, probe Labelox B enabled visualization of localized LOX activity in living cells (Figure 2 c). […] The fluorescence intensity increased with increasing doses of Labelox B and labeling was observed throughout the cells in the cytoplasm and the nucleus of A549.
(§2) Figure 2 Labelox B labels endogenous LOXs in a dose‐ and time‐dependent manner. a, b) Western blot analysis of Labelox B labeled LOXs in intact RAW 264.7 for indicated doses and time points. […] The pictures were captured by a Leica DM4000b fluorescence microscope.

For a further series, the target named is T2, 15-LOX-1 (Homo sapiens, UniProt P16050).
T2 sequence (P16050 1-662): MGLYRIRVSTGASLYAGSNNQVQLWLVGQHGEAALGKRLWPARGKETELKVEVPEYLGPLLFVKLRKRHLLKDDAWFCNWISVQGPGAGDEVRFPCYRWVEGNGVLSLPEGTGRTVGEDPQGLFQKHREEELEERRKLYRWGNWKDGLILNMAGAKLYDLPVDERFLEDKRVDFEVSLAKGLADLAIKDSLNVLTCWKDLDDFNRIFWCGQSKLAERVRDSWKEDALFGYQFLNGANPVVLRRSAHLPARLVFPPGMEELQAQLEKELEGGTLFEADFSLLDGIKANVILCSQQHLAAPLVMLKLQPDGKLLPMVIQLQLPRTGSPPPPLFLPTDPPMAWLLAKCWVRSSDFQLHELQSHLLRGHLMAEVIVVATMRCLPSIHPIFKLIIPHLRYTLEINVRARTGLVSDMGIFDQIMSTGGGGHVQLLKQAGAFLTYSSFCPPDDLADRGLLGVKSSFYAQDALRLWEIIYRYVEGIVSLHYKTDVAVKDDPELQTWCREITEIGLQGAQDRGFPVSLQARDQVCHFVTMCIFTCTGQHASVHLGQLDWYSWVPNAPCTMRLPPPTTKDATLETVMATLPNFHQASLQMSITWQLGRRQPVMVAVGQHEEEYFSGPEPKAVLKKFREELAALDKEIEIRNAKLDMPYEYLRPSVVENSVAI
Briefly: Sandwich ELISA of Labelox B biotinylation in A549 cell lysate, 15-LOX-1 capture. It is filed as biochemical. The following applies: HRP-streptavidin detection, read-out: EC50 of labeling. Also noted: the endogenous LOXs were captured on an anti‐LOX antibody precoated 96‐well plate; endogenous in cells; host or cells: A549 cell lysate. The method, then:
as §1, §2

pEC50: −log10 of the molar value.

As to `CCCCCC#CCC#CCOC(=O)CCCC[C@@H]1SC[C@@H]2NC(=O)N[C@@H]21` [Labelox B (3)], the “Labeling of proteins with the size of endogenous LOXs” value in series [1] (1 μM to 100 μM, 0.5 h to 6 h) is “dose and time‐dependent manner”. For the same molecule, the “Cell permeability” value in series [1] (labels effectively in half an hour at 25 μM) is reported as “sufficiently cell‐permeable”. Also, the pEC50 on 5-LOX and at 15-LOX-1 was ~5.46 each time.
